# From patent US10597388B2, “Pyridazinone herbicides” (FMC CORPORATION, priority 2014, dated 2020)
# Legend:
# Assay in all cases: Test D controlled growth environment herbicide test, pre- and postemergence
# Format in all cases: in vivo
# [1] = tested on: oat, wild (wild oat, Avena fatua)
# How it was run: (§1)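 Rating is visual, 0–100 scale (100 = complete control), made against untreated plants 14–21 d after treatment in controlled growth conditions. Postemergence sprays went onto 1- to 4-leaf plants in peat medium; preemergence sprays onto silt loam after sowing; formulation included a surfactant.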
# [2] = tested on: oilseed rape (Brassica napus)
# How it was run: as §1
# [3] = tested on: chickweed (common chickweed, Stellaria media)
# How it was run: as §1
# [4] = tested on: wheat, winter (winter wheat, Triticum aestivum)
# How it was run: as §1
# [5] = tested on: radish, wild (wild radish, Raphanus raphanistrum)
# How it was run: as §1
# kochia (Kochia scoparia) = tested on: kochia (Kochia scoparia)
# How it was run: as §1
# [6] = tested on: Russian thistle (Salsola kali)
# How it was run: as §1
# [7] = tested on: chamomile (scentless chamomile, Matricaria inodora)
# How it was run: as §1
# [8] = tested on: speedwell (bird's-eye speedwell, Veronica persica)
# How it was run: as §1
# [9] = tested on: deadnettle (henbit deadnettle, Lamium amplexicaule)
# How it was run: as §1
# [10] = tested on: barley, spring (spring barley, Hordeum vulgare)
# How it was run: as §1
# [11] = tested on: mustard, wild (wild mustard, Sinapis arvensis)
# How it was run: as §1
# [12] = tested on: field poppy (Papaver rhoeas)
# How it was run: as §1
# [13] = tested on: field violet (Viola arvensis)
# How it was run: as §1
# [14] = Postemergence, 31 g ai/ha, scale 0 to 100 (0 no effect, 100 complete control)
# [15] = Postemergence, 125 g ai/ha, visual rating on scale 0 (no effect) to 100 (complete control), 14 to 21 d
# [16] = Postemergence, 250 g ai/ha, scale 0 to 100 (0 no effect, 100 complete control)
# [17] = Preemergence, 125 g ai/ha, scale 0 to 100 (0 no effect, 100 complete control)
# [18] = Preemergence, 250 g ai/ha, scale 0 to 100, 0 no effect, 100 complete control
# [19] = postemergence, 62 g ai/ha, scale 0 to 100, 0 no effect, 100 complete control
smiles,measurement,setting,value
CCCC(=O)Oc1c(C)nn(C)c(=O)c1-c1c(C)sc2ccc(C)cc12 [Compound 105],"Oat, Wild plant response rating",[1]; [14],80
same,"Plant response rating, Oat, Wild",[1]; [15],95
same,"Plant response rating, Oat, Wild",[1]; [16],100
same,"Plant response rating (scale of 0 to 100), Oat, Wild","[1]; Preemergence, 31 g ai/ha",80
same,"Plant response rating (scale of 0 to 100), Oat, Wild","[1]; Preemergence, 62 g ai/ha",80
same,"Plant response rating, Oat, Wild",[1]; [17],85
same,"Plant response rating, Oat, Wild",[1]; [18],100
same,"Plant response rating, Oat, Wild",[1]; [19],85
same,Oilseed Rape plant response rating,[2]; [14],0
same,"Plant response rating, Oilseed Rape",[2]; [15],25
same,"Plant response rating, Oilseed Rape",[2]; [16],60
same,"Plant response rating (scale of 0 to 100), Oilseed Rape","[2]; Preemergence, 31 g ai/ha",55
same,"Plant response rating (scale of 0 to 100), Oilseed Rape","[2]; Preemergence, 62 g ai/ha",60
same,"Plant response rating, Oilseed Rape",[2]; [17],50
same,"Plant response rating, Oilseed Rape",[2]; [18],50
same,"Plant response rating, Oilseed Rape",[2]; [19],15
same,Chickweed plant response rating,[3]; [14],90
same,"Plant response rating, Chickweed",[3]; [15],100
same,"Plant response rating, Chickweed",[3]; [16],100
same,"Plant response rating (scale of 0 to 100), Chickweed","[3]; Preemergence, 31 g ai/ha",100
same,"Plant response rating (scale of 0 to 100), Chickweed","[3]; Preemergence, 62 g ai/ha",100
same,"Plant response rating, Chickweed",[3]; [17],100
same,"Plant response rating, Chickweed",[3]; [18],100
same,"Plant response rating, Chickweed",[3]; [19],90
same,"Wheat, Winter plant response rating",[4]; [14],0
same,"Plant response rating, Wheat, Winter",[4]; [15],10
same,"Plant response rating, Wheat, Winter",[4]; [16],20
same,"Plant response rating (scale of 0 to 100), Wheat, Winter","[4]; Preemergence, 31 g ai/ha",0
same,"Plant response rating (scale of 0 to 100), Wheat, Winter","[4]; Preemergence, 62 g ai/ha",0
same,"Plant response rating, Wheat, Winter",[4]; [17],5
same,"Plant response rating, Wheat, Winter",[4]; [18],5
same,"Plant response rating, Wheat, Winter",[4]; [19],5
same,"Radish, Wild plant response rating",[5]; [14],5
same,"Plant response rating, Radish, Wild",[5]; [15],20
same,"Plant response rating, Radish, Wild",[5]; [16],70
same,"Plant response rating (scale of 0 to 100), Radish, Wild","[5]; Preemergence, 62 g ai/ha",15
same,"Plant response rating, Radish, Wild",[5]; [17],35
same,"Plant response rating, Radish, Wild",[5]; [18],55
same,"Plant response rating, Radish, Wild",[5]; [19],15
same,Kochia plant response rating,kochia (Kochia scoparia); [14],85
same,"Plant response rating, Kochia",kochia (Kochia scoparia); [15],95
same,"Plant response rating, Kochia",kochia (Kochia scoparia); [16],100
same,"Plant response rating (scale of 0 to 100), Kochia","kochia (Kochia scoparia); Preemergence, 31 g ai/ha",10
same,"Plant response rating (scale of 0 to 100), Kochia","kochia (Kochia scoparia); Preemergence, 62 g ai/ha",50
same,"Plant response rating, Kochia",kochia (Kochia scoparia); [17],95
same,"Plant response rating, Kochia",kochia (Kochia scoparia); [18],100
same,"Plant response rating, Kochia",kochia (Kochia scoparia); [19],95
same,Russian Thistle plant response rating,[6]; [14],40
same,"Plant response rating, Russian Thistle",[6]; [15],50
same,"Plant response rating, Russian Thistle",[6]; [16],50
same,"Plant response rating (scale of 0 to 100), Russian Thistle","[6]; Preemergence, 31 g ai/ha",0
same,"Plant response rating (scale of 0 to 100), Russian Thistle","[6]; Preemergence, 62 g ai/ha",60
same,"Plant response rating, Russian Thistle",[6]; [17],70
same,"Plant response rating, Russian Thistle",[6]; [18],90
same,"Plant response rating, Russian Thistle",[6]; [19],45
same,Chamomile plant response rating,[7]; [14],80
same,"Plant response rating, Chamomile",[7]; [15],100
same,"Plant response rating, Chamomile",[7]; [16],100
same,"Plant response rating, Chamomile",[7]; [19],85
same,Speedwell plant response rating,[8]; [14],45
same,"Plant response rating, Speedwell",[8]; [15],65
same,"Plant response rating, Speedwell",[8]; [16],75
same,"Plant response rating, Speedwell",[8]; [19],50
same,Deadnettle plant response rating,[9]; [14],10
same,"Plant response rating, Deadnettle",[9]; [15],20
same,"Plant response rating, Deadnettle",[9]; [16],30
same,"Plant response rating (scale of 0 to 100), Deadnettle","[9]; Preemergence, 62 g ai/ha",10
same,"Plant response rating, Deadnettle",[9]; [17],15
same,"Plant response rating, Deadnettle",[9]; [18],65
same,"Plant response rating, Deadnettle",[9]; [19],10
same,"Barley, Spring plant response rating",[10]; [14],0
same,"Plant response rating, Barley, Spring",[10]; [15],10
same,"Plant response rating, Barley, Spring",[10]; [16],15
same,"Plant response rating (scale of 0 to 100), Barley, Spring","[10]; Preemergence, 31 g ai/ha",0
same,"Plant response rating, Barley, Spring","[10]; Preemergence, 62 g ai/ha, scale 0 to 100 (0 no effect, 100 complete control)",0
same,"Plant response rating, Barley, Spring",[10]; [17],0
same,"Plant response rating, Barley, Spring",[10]; [18],20
same,"Plant response rating, Barley, Spring",[10]; [19],5
same,"Mustard, Wild plant response rating",[11]; [14],5
same,"Plant response rating, Mustard, Wild",[11]; [15],40
same,"Plant response rating, Mustard, Wild",[11]; [16],75
same,"Plant response rating (scale of 0 to 100), Mustard, Wild","[11]; Preemergence, 31 g ai/ha",10
same,"Plant response rating (scale of 0 to 100), Mustard, Wild","[11]; Preemergence, 62 g ai/ha",0
same,"Plant response rating, Mustard, Wild",[11]; [17],0
same,"Plant response rating, Mustard, Wild",[11]; [18],20
same,"Plant response rating, Mustard, Wild",[11]; [19],25
same,Field Poppy plant response rating,[12]; [14],70
same,"Plant response rating, Field Poppy",[12]; [15],80
same,"Plant response rating, Field Poppy",[12]; [16],80
same,"Plant response rating (scale of 0 to 100), Field Poppy","[12]; Preemergence, 31 g ai/ha",100
same,"Plant response rating (scale of 0 to 100), Field Poppy","[12]; Preemergence, 62 g ai/ha",100
same,"Plant response rating, Field Poppy",[12]; [17],100
same,"Plant response rating, Field Poppy",[12]; [18],100
same,"Plant response rating, Field Poppy",[12]; [19],75
same,Field Violet plant response rating,[13]; [14],85
same,"Plant response rating, Field Violet",[13]; [15],95
same,"Plant response rating, Field Violet",[13]; [16],100
same,"Plant response rating (scale of 0 to 100), Field Violet","[13]; Preemergence, 31 g ai/ha",100
same,"Plant response rating (scale of 0 to 100), Field Violet","[13]; Preemergence, 62 g ai/ha",100
same,"Plant response rating, Field Violet",[13]; [17],100
same,"Plant response rating, Field Violet",[13]; [18],100
same,"Plant response rating, Field Violet",[13]; [19],90
